pIC50: −log10 of the molar value.
Each compound was assayed against human TPH1 (Homo sapiens (Human), UniProt P17752) (assay: Biochemical in vitro assay using fluorescence readout (TPH1 inhibition)). Conditions: full length human TPH1, 40 μM L-tryptophan, 15° C., 60 minutes, fluorescence at 540 nm; mean if determined several times.
Chain of human TPH1 (P17752 whole entry): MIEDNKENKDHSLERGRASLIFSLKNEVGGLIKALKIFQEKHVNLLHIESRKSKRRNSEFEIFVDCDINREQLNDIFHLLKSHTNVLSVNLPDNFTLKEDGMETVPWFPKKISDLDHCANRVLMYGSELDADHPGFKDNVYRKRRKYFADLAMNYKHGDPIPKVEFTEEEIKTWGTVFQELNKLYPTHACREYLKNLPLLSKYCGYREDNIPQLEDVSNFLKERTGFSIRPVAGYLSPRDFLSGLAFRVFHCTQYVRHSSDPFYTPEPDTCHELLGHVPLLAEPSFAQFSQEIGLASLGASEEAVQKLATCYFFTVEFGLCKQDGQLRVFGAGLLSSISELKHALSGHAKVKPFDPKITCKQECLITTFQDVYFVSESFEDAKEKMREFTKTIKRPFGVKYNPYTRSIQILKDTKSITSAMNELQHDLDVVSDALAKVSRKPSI
Source text: Biochemical In Vitro Assay Using Fluorescence Readout
To generate the enzyme, full length human TPH1 is cloned into the plasmid pET20b(+) (Novagen) and expressed in E. coli. The bacterial cells are ruptured by sonication on ice and the lysate is cleared by centrifugation. The resulting protein in the pellet is re-extracted and TPH1 is purified from the obtained lysate by affinity chromatography using a pterin cosubstrate analog immobilized to the resin of the column. The protein is further purified by size exclusion chromatography to remove protein aggregates. The activity of TPH1 is determined by using a fluorescence assay. The enzyme activity assay is carried out at 15° C. with atmosphere oxygen for the duration of 60 minutes in a volume of 64 μl. The reaction is carried out in a 0.1 M Tris-HCl buffer, adjusted to pH 7.6, containing 1 mM DTT, 0.2 mg/mL catalase, 100 μM (±)-6-methyl-5,6,7,8-tetrahydropterine dihydrochloride, 40 μM L-tryptophan, and 40-80 nM of TPH1. The reaction is started by bringing together L-tryptophan with all the other reaction substituents and stopped by quenching with perchloric acid (HClO4). The amount of 5-hydroxy-L-tryptophan produced during the enzymatic reaction is determined by fluorescence readout. Fluorescence, as determined at 540 nm when excited at 300 nm wavelength, increases proportionally to the 5-hydroxy-L-tryptophan formed. Compounds are prepared as 10 mM stock solution in DMSO, then diluted in 384-well plates using DMSO followed by a transfer of the dilutions into the assay plate. Fluorescence is measured for each well and the fluorescence at 540 nm wavelength is compared to the fluorescence of the vehicle in place of compound. Inhibitory activities of example compounds with respect to the TPH1 protein are determined by calculating the IC50 value (the concentration of compound needed to inhibit 50% of the enzyme activity). The calculated IC50 values may fluctuate depending on the daily biochemical assay performance. Fluctuations of this kind are known to those skilled in the art.
For `Cc1nn2c3c(nc2s1)CCN(C(=O)COc1ccc(NS(C)(=O)=O)nc1Cl)C3c1cc(C(=O)N(C)C)cs1` (stereo not shown) [Example 1.9.4, 5-(6-(2-((2-Chloro-6-(methylsulfonamido)pyridin-3-yl)oxy)acetyl)-2-methyl-5,6,7,8-tetra-hydro-[1,3,4]thiadiazolo[2′,3′:2,3]imidazo[4,5-c]pyridin-5-yl)-N,N-dimethylthiophene-3-carboxamide], the pIC50 was 7.49. Compound `Cc1nn2c3c(nc2s1)CCN(C(=O)COc1ccc(N2C[C@@H](C)C[C@H](C)C2)nc1Cl)C3c1ccc(Cl)cc1F` (stereo partly drawn) [Example 1.4.20, 1-(5-(4-Chloro-2-fluorophenyl)-2-methyl-7,8-dihydro-[1,3,4]thiadiazolo[2′,3′:2,3]imidazo[4,5-c]pyridin-6(5H)-yl)-2-((2-chloro-6-((3S,5S)-3,5-dimethylpipe-ridin-1-yl)pyridin-3-yl)oxy)ethanone] has a pIC50 of 8.52. `Cc1nn2c3c(nc2s1)CCN(C(=O)COc1ccc(N2CCOCC2)nc1Cl)C3c1cc(C(=O)O)cs1` (stereo not shown) [Example 1.46.1, 5-(6-(2-((2-chloro-6-morpholinopyridin-3-yl)oxy)acetyl)-2-methyl-5,6,7,8-tetrahydro-[1,3,4]thiadiazolo[2′,3′:2,3]imidazo[4,5-c]pyridin-5-yl)thiophene-3-carboxylic acid] gave a pIC50 of 7.74. `Cc1nn2c3c(nc2s1)CCN(C(=O)COc1ccc(C(=O)N(C)C)nc1Cl)C3c1ccc(C(=O)N(C)C)o1` (stereo not shown) [Example 1.40.1, 6-Chloro-5-(2-(5-(5-(dimethylcarbamoyl)furan-2-yl)-2-methyl-7,8-dihydro[1,3,4]thiadiazolo[2′,3′:2,4]imidazo[4,5-c]pyridin-6(5H)-yl)-2-oxoethoxy)-N,N-dimethylpicolinamide] gave a pIC50 of 7.05.

Same assay, conditions: human TPH1, fluorescence readout
For `O=C(COc1ccc(N2CCOCC2)cc1Cl)N1CC=C2N=C3SC=CN3C2[C@H]1c1ccc(Cl)cc1F` (stereo partly drawn) [Example 6.4.2, 1-((5R)-5-(4-chloro-2-fluorophenyl)-4a,5-dihydro-thiazolo[2′,3′:2,3]imidazo[4,5-c]pyridin-6(7H)-yl)-2-(2-chloro-4-morpholinophenoxy)ethanone], the pIC50 was 8.40. For `Cc1nn2c3c(nc2s1)CCN(C(=O)COc1ccc(N2CCOCC2)nc1Cl)C3c1ccc(C2CC2)cc1F` (stereo not shown) [Example 1.6.17, 2-((2-chloro-6-morpholinopyridin-3-yl)oxy)-1-(5-(4-cyclopropyl-2-fluorophenyl)-2-methyl-7,8-dihydro-[1,3,4]thiadiazolo [2′,3′:2,3]imidazo[4,5-c]pyridin-6(5H)-yl)ethanone], the pIC50 was 8.52. With `Cc1nn2c3c(nc2s1)CCN(C(=O)COc1ccc(C(F)(F)F)cc1Cl)C3c1scnc1C` (stereo not shown) [Example 1.32.3, 2-(2-chloro-4-(trifluoromethyl)phenoxy)-1-(2-methyl-5-(4-methylthiazol-5-yl)-7,8-dihydro-[1,3,4]thiadiazolo [2′,3′:2,3]imidazo[4,5-c]pyridin-6(5H)-yl)ethanone] the pIC50 was 8.00. Compound `Cc1nn2c3c(nc2s1)CCN(C(=O)COc1ccc(C#N)nc1Cl)C3c1sc(C(=O)N(C)C)cc1F` (stereo not shown) [Example 1.24.4, 5-(6-(2-((2-chloro-6-cyanopyridin-3-yl)oxy)acetyl)-2-methyl-5,6,7,8-tetrahydro-[1,3,4]thiadiazolo[2′,3′:2,3]imidazo[4,5-c]pyridin-5-yl)-4-fluoro-N,N-dimethylthiophene-2-carboxamide] has a pIC50 of 7.34. `Cc1nn2c3c(nc2s1)CCN(C(=O)COc1ccc(N2CCOCC2)nc1Cl)C3c1cc(C(C)(C)O)cs1` (stereo not shown) [Example 1.20.1, 2-((2-chloro-6-morpholinopyridin-3-yl)oxy)-1-(5-(4-(2-hydroxypropan-2-yl)thiophen-2-yl)-2-methyl-7,8-dihydro-[1,3,4]thiadiazolo[2′,3′:2,3]imidazo[4,5-c]pyridin-6(5H)-yl)ethanone] showed a pIC50 of 7.92. For `COc1ccc(C2c3c(nc4sccn34)CCN2C(=O)COc2ccc3ccccc3c2)cc1OC` (stereo not shown) [Example 6.1.1, 1-(5-(3,4-dimethoxyphenyl)-7,8-dihydrothiazolo-[2′,3′:2,3]imidazo[4,5-c]pyridin-6(5H)-yl)-2-(naphthalen-2-yloxy)ethanone], the pIC50 was 8.40. Compound `CCc1nc(N2CCCS2(=O)=O)ccc1OCC(=O)N1CCc2nc3sc(C(F)F)nn3c2C1c1sc(C)nc1C` (stereo not shown) [Example 8.3.2, 1-(2-(difluoromethyl)-5-(2,4-dimethylthiazol-5-yl)-7,8-dihydro-[1,3,4]thiadiazolo[2′,3′:2,3]imidazo[4,5-c]pyridin-6(5H)-yl)-2-((6-(1,1-dioxidoisothiazolidin-2-yl)-2-ethylpyridin-3-yl)oxy)ethanone] has a pIC50 of 7.89. With `Cc1nn2c3c(nc2s1)CCN(C(=O)COc1ccc(N2CCCC2)nc1C)C3c1ccc(C2CC2)cc1F` (stereo not shown) [Example 1.6.16, 1-(5-(4-cyclopropyl-2-fluorophenyl)-2-methyl-7,8-dihydro-[1,3,4]thiadiazolo[2′,3′:2,3]imidazo[4,5-c]pyridin-6(5H)-yl)-2-((2-methyl-6-(pyrrolidin-1-yl)pyridin-3-yl)oxy)ethanone] the pIC50 was 7.89. Work on `CCc1c(OCC(=O)N2CCc3nc4sc(C)nn4c3C2c2ccc(C3CC3)cc2F)ccc(C)[n+]1[O-]` (stereo not shown) [Example 1.6.20, 3-(2-(5-(4-cyclopropyl-2-fluorophenyl)-2-methyl-7,8-dihydro-[1,3,4]thiadiazolo[2′,3′:2,3]imidazo[4,5-c]pyridin-6(5H)-yl)-2-oxoethoxy)-2-ethyl-6-methylpyridine-1-oxide] yielded a pIC50 of 7.03. Work on `O=C(COc1ccc(-c2ncco2)nc1Cl)N1CCc2nc3scnn3c2C1c1ccc(Cl)cc1F` (stereo not shown) [Example 2.1.3] yielded a pIC50 of 8.10. `CNC(=O)c1cc(F)c(C2c3c(nc4sc(C)nn34)CCN2C(=O)COc2ccc(N3CC(F)(F)C3)nc2Cl)s1` (stereo not shown) [Example 1.25.5, 5-(6-(2-((2-chloro-6-(3,3-difluoroazetidin-1-yl)pyridin-3-yl)oxy)acetyl)-2-methyl-5,6,7,8-tetrahydro-[1,3,4]thiadiazolo [2′,3′:2,3]imidazo[4,5-c]pyridin-5-yl)-4-fluoro-N-methylthiophene-2-carboxamide] gave a pIC50 of 8.15. `CNC(=O)c1ccc(OCC(=O)N2CCc3nc4sc(C)nn4c3C2c2sccc2F)c(Cl)n1` (stereo not shown) [Example 1.23.10, 6-chloro-5-(2-(5-(3-fluorothiophen-2-yl)-2-methyl-7,8-dihydro-[1,3,4]thiadiazolo[2′,3′:2,3]imidazo[4,5-c]pyridin-6(5H)-yl)-2-oxoethoxy)-N-methylpicolinamide] gave a pIC50 of 8.05. `Cc1cnc([C@H]2c3c(nc4sc(C)nn34)CCN2C(=O)COc2ccc(N(C)S(C)(=O)=O)nc2Cl)c(F)c1` [Example 1.31.15, (R)-N-(6-chloro-5-(2-(5-(3-fluoro-5-methylpyridin-2-yl)-2-methyl-7,8-dihydro-[1,3,4]thiadiazolo[2′,3′:2,3]-imidazo[4,5-c]pyridin-6(5H)-yl)-2-oxoethoxy)pyridin-2-yl)-N-methylmethanesulfonamide] showed a pIC50 of 8.05. For `Cc1nn2c3c(nc2s1)CCN(C(=O)COc1ccc(S(N)(=O)=O)cc1)C3c1ccc(C2CC2)cc1F` (stereo not shown) [Example 1.6.12, 4-(2-(5-(4-cyclopropyl-2-fluorophenyl)-2-methyl-7,8-dihydro-[1,3,4]thiadiazolo[2′,3′:2,3]imidazo[4,5-c]pyridin-6(5H)-yl)-2-oxoethoxy)benzenesulfonamide], the pIC50 was 6.41. `Cc1nn2c3c(nc2s1)CCN(C(=O)COc1ccc(N(C)CC(F)(F)F)nc1Cl)C3c1ccc(Cl)cc1F` (stereo not shown) [Example 1.4.38, 1-(5-(4-chloro-2-fluorophenyl)-2-methyl-7,8-dihydro-[1,3,4]thiadiazolo[2′,3′:2,3]imidazo[4,5-c]pyridin-6(5H)-yl)-2-((2-chloro-6-(methyl(2,2,2-trifluoroethyl)amino)pyridin-3-yl)oxy)ethanone] gave a pIC50 of 8.52. `Cc1nc(C)c(C2c3c(nc4sc(C)nn34)CCN2C(=O)COc2ccc(N(C)S(C)(=O)=O)nc2Cl)s1` (stereo not shown) [Example 1.68.6, N-(6-chloro-5-(2-(5-(2,4-dimethylthiazol-5-yl)-2-methyl-7,8-dihydro-[1,3,4]thiadiazolo[2′,3′:2,3]imidazo[4,5-c]-pyridin-6(5H)-yl)-2-oxoethoxy)pyridin-2-yl)-N-methylmethanesulfonamide] was tested, and the pIC50 was 8.22. `Cc1nn2c3c(nc2s1)CCN(C(=O)COc1ccc(N2CCOCC2)nc1Cl)C3c1nc(-c2ccccc2)no1` (stereo not shown) [Example 1.11.3, 2-((2-chloro-6-morpholinopyridin-3-yl)oxy)-1-(2-methyl-5-(3-phenyl-1,2,4-oxadiazol-5-yl)-7,8-dihydro-[1,3,4]thiadiazolo [2′,3′:2,3]imidazo[4,5-c]pyridin-6(5H)-yl)ethanone] gave a pIC50 of 8.40. With `CCc1nc(Cl)ncc1OCC(=O)N1CCc2nc3sc(C)nn3c2C1c1ccc(C)c(F)c1F` (stereo not shown) [Example 1.61.4, 2-((2-chloro-4-ethylpyrimidin-5-yl)oxy)-1-(5-(2,3-difluoro-4-methylphenyl)-2-methyl-7,8-dihydro-[1,3,4]thiadiazolo[2′,3′:2,3]imidazo[4,5-c]pyridin-6(5H)-yl)ethanone] the pIC50 was 7.31.
